# Reference: the supplement of paper PMC11451515
# System: SEM cells
# Experiment: cell viability relative to DMSO control; higher = less cytotoxic
# Details: 48 h
# Outline: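 Viability is a per-plate percentage relative to DMSO wells, with cell-free wells as background. CellTiter-Glo One luminescence was read after 48 h at 37°C on 1536-well plates (5 μl) of NOMO1 or SEM (500 cells/well) or P12-Ichikawa (1000 cells/well) leukemia cells. The cells had been adapted for at least four passages in each medium and pin-dosed with library compounds in DMSO from 47 μM to 0.79 nM in 11 threefold steps.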
# [1] = HPLM + 10% dialyzed FBS, 0.000781 µM
# [2] = HPLM + 10% dialyzed FBS, 0.00234 µM
# [3] = HPLM + 10% dialyzed FBS, 0.00702 µM
# [4] = HPLM + 10% dialyzed FBS, 0.0211 µM
# [5] = HPLM + 10% dialyzed FBS, 0.0632 µM
# [6] = HPLM + 10% dialyzed FBS, 0.19 µM
# [7] = HPLM + 10% dialyzed FBS, 0.569 µM
# [8] = HPLM + 10% dialyzed FBS, 1.71 µM
# [9] = HPLM + 10% dialyzed FBS, 5.12 µM
# [10] = HPLM + 10% dialyzed FBS, 15.4 µM
# [11] = HPLM + 10% dialyzed FBS, 46.1 µM
# [12] = RPMI 5 mM glucose + 10% FBS, 0.000781 µM
# [13] = RPMI 5 mM glucose + 10% FBS, 0.00234 µM
# [14] = RPMI 5 mM glucose + 10% FBS, 0.00702 µM
# [15] = RPMI 5 mM glucose + 10% FBS, 0.0211 µM
# [16] = RPMI 5 mM glucose + 10% FBS, 0.0632 µM
# [17] = RPMI 5 mM glucose + 10% FBS, 0.19 µM
# [18] = RPMI 5 mM glucose + 10% FBS, 0.569 µM
# [19] = RPMI 5 mM glucose + 10% FBS, 1.71 µM
# [20] = RPMI 5 mM glucose + 10% FBS, 5.12 µM
# [21] = RPMI 5 mM glucose + 10% FBS, 15.4 µM
# [22] = RPMI 5 mM glucose + 10% FBS, 46.1 µM
# [23] = RPMI 5 mM glucose + 10% dialyzed FBS, 0.000781 µM
# [24] = RPMI 5 mM glucose + 10% dialyzed FBS, 0.00234 µM
# [25] = RPMI 5 mM glucose + 10% dialyzed FBS, 0.00702 µM
# [26] = RPMI 5 mM glucose + 10% dialyzed FBS, 0.0211 µM
# [27] = RPMI 5 mM glucose + 10% dialyzed FBS, 0.0632 µM
# [28] = RPMI 5 mM glucose + 10% dialyzed FBS, 0.19 µM
# [29] = RPMI 5 mM glucose + 10% dialyzed FBS, 0.569 µM
# [30] = RPMI 5 mM glucose + 10% dialyzed FBS, 1.71 µM
# [31] = RPMI 5 mM glucose + 10% dialyzed FBS, 5.12 µM
# [32] = RPMI 5 mM glucose + 10% dialyzed FBS, 15.4 µM
# [33] = RPMI 5 mM glucose + 10% dialyzed FBS, 46.1 µM
Compound,cell viability [1],cell viability [2],cell viability [3],cell viability [4],cell viability [5],cell viability [6],cell viability [7],cell viability [8],cell viability [9],cell viability [10],cell viability [11],cell viability [12],cell viability [13],cell viability [14],cell viability [15],cell viability [16],cell viability [17],cell viability [18],cell viability [19],cell viability [20],cell viability [21],cell viability [22],cell viability [23],cell viability [24],cell viability [25],cell viability [26],cell viability [27],cell viability [28],cell viability [29],cell viability [30],cell viability [31],cell viability [32],cell viability [33]
CN(C)CCOc1cc(-c2cn[nH]c2)ccc1NC(=O)C1COc2ccccc2O1 (stereo unspecified),87.1%,84.6%,101%,105%,106%,106%,98.5%,102%,80.1%,71.7%,56.2%,101%,95%,108%,94.9%,118%,90.7%,103%,96%,105%,69.3%,61.3%,107%,101%,110%,108%,94.6%,104%,93.1%,102%,98.3%,71.8%,68.9%
Cc1ccccc1N1C(=O)c2cc([S+](N)(=O)[O-])c(Cl)cc2NC1C (stereo unspecified),117%,108%,105%,107%,122%,117%,28.7%,102%,112%,107%,103%,142%,120%,117%,109%,118%,126%,22.5%,128%,119%,112%,84.4%,125%,103%,89.6%,103%,100%,97.5%,26.8%,126%,112%,108%,97.2%
COc1cccc2cc(-c3nc(C4CCC(C(=O)O)CC4)n4ncnc(N)c34)[nH]c12 (stereo unspecified),118%,132%,124%,107%,107%,101%,74.7%,36.2%,28.2%,22.6%,16.4%,,,,,,,,,,,,111%,133%,118%,114%,96%,99.7%,89.3%,52.6%,31.5%,22.2%,15.8%
CC1=C(/C=C/C(C)=C/C=C/C(C)=C/C=C/C=C(C)/C=C/C=C(C)/C=C/C2=C(C)CCCC2(C)C)C(C)(C)CCC1,96.8%,101%,106%,113%,102%,108%,94.3%,110%,115%,95.4%,98.1%,93.1%,115%,105%,98.3%,106%,108%,94.2%,118%,119%,104%,99.4%,101%,100%,114%,106%,109%,105%,92.8%,125%,103%,119%,85.5%
CC(=O)Oc1ccccc1C(=O)O,104%,99.4%,105%,106%,102%,106%,105%,97.3%,88.2%,99.9%,96.7%,110%,104%,100%,120%,107%,104%,120%,111%,99.3%,105%,95.1%,102%,99.4%,109%,111%,108%,102%,113%,108%,108%,100%,111%
CC(NC1=CC=CC=C1)C\2=C\C(=C/N3C(=O)\C=C(/N=C23)N4CCOCC4)C (stereo unspecified),96.9%,86.4%,108%,99.1%,101%,108%,107%,108%,103%,97.3%,86.5%,99.1%,101%,117%,126%,103%,101%,128%,119%,117%,101%,12.2%,95.3%,79.7%,113%,106%,94.3%,73.8%,101%,110%,98.3%,87.3%,53.8%
COc1cc2nc(N(C)CCCNC(=O)C3CCCO3)nc(N)c2cc1OC (stereo unspecified),53.9%,66.5%,58.9%,80.3%,84.7%,84.9%,75.5%,89.3%,74.2%,79.2%,73.3%,60.7%,61.4%,64.1%,71.7%,87.1%,102%,82.9%,75.3%,73.4%,76.4%,62.2%,69.7%,67.7%,69.5%,97.7%,89%,93.7%,74.1%,87.3%,75%,77.4%,67.2%
CCC1(C)CC(=O)NC1=O (stereo unspecified),107%,102%,109%,112%,114%,114%,106%,95.5%,110%,94.5%,81.7%,113%,101%,107%,107%,103%,106%,106%,93.7%,103%,92.3%,72.3%,93.7%,114%,117%,114%,116%,108%,110%,99.7%,108%,94%,74.3%
COC[C@H]1OC(=O)C2=COC3=C2[C@@]1(C)\C4=C(C5CCC(=O)[C@@]5(C)C[C@H]4OC(C)=O)/C3=O (stereo partly specified),72.1%,84.9%,96.8%,17.5%,99.5%,93%,93.6%,95.6%,85.6%,82%,95.3%,90.8%,107%,101%,14.7%,109%,102%,107%,111%,81.5%,92.2%,80.3%,89.2%,84.6%,88.9%,16.4%,88.6%,85.1%,94.8%,82.9%,77.1%,63.5%,50.9%
O=C(OC)[C@]12CC[C@@]3(C)[C@]4(C)CC[C@H]5[C@@](C)(C)C(=O)C(=C[C@]5(C)C4=CC(=O)[C@@H]3[C@@H]2C[C@](C)(C)CC1)C#N,92.6%,83.3%,100%,101%,104%,99.7%,98.1%,107%,81%,3.9%,4.06%,101%,91.8%,112%,94.6%,110%,97.4%,101%,99.7%,109%,3.61%,4.26%,82%,87.2%,90.8%,92.6%,109%,102%,103%,77.4%,73.6%,3.1%,3.38%
CN(C)c1ccc(O)c2c1C[C@H]1C[C@H]3[C@H](N(C)C)C(O)=C(C(N)=O)C(=O)[C@@]3(O)C(O)=C1C2=O,97.4%,98.3%,93.9%,108%,107%,103%,91.9%,104%,104%,107%,118%,98.3%,103%,93.8%,96.4%,114%,108%,105%,110%,103%,93.5%,106%,106%,119%,106%,106%,105%,106%,115%,122%,114%,107%,104%
CNC1CCC(N(Cc2cccc(-c3ccncc3)c2)C(=O)c2sc3ccccc3c2Cl)CC1 (stereo unspecified),86.2%,93.2%,104%,90.6%,87.9%,105%,95.5%,25.6%,4.92%,3.48%,2.45%,90.1%,83.7%,100%,114%,88.5%,97.4%,18.2%,6.65%,5.64%,3.32%,1.88%,76.6%,82.9%,95.5%,98.5%,77.7%,99.1%,81.6%,6.38%,5.65%,3.68%,2.48%
CN(CC#C)C/C1=C/C2=CC=CC=C2OC3=CC=CC=C13,90.9%,90.7%,79.7%,80.1%,76.8%,40.6%,32.1%,91.6%,30.1%,49.2%,42%,100%,109%,113%,105%,83.3%,49.9%,36.8%,117%,41.4%,61.3%,50.3%,80.4%,85.3%,81.2%,69.2%,60.6%,32.8%,29.1%,103%,29.2%,47.3%,37.7%
FC(F)(F)c1ccc(/C=C/c2nc(COc3ccc(CCCCn4ccnn4)cc3)co2)cc1,116%,119%,123%,108%,103%,111%,109%,108%,103%,109%,98.7%,117%,103%,116%,95.3%,105%,78.3%,104%,81%,94.2%,94.4%,85.7%,110%,124%,103%,91.3%,95.9%,86%,82.3%,84.9%,79.3%,70.9%,84%
